Laboratory results: ChEMBL document CHEMBL3727361, “Nitrogen bicyclic compounds as inhibitors for Scyl1 and Grk5” (2014)
Calls of active or inactive are those of the source. No cut-off for these calls is given here.

Tests used:
[1] = target: T1, N-terminal kinase-like protein (Mus musculus) (UniProt Q9EQC5); assay: Inhibition of GRK5 in mouse C2C12 cells assessed as increase in 2-NBDG uptake at 5 uM after 1 hr relative to DMSO; format: cell-based
T1 sequence (whole entry): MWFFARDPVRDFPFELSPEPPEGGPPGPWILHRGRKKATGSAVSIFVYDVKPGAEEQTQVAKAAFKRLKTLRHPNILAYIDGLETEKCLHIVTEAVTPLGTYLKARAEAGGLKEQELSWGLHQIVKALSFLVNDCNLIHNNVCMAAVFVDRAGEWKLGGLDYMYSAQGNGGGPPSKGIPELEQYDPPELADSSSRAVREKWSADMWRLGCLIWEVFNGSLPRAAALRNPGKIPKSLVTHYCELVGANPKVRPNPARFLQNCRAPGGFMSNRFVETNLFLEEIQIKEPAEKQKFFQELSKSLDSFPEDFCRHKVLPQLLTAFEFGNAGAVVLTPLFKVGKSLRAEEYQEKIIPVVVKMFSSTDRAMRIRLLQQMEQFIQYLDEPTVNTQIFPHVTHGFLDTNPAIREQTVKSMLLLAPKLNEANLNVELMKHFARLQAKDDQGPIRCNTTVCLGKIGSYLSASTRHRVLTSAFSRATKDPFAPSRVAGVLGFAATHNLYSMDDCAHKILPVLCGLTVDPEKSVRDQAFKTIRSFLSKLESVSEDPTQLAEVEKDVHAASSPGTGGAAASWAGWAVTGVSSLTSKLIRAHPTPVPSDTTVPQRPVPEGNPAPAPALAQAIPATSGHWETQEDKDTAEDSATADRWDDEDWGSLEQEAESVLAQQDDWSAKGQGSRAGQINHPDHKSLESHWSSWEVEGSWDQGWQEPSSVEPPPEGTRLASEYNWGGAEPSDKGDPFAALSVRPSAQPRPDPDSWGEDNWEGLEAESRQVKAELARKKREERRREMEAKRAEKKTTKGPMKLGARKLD

Beta-TC6 [2] = assay: Increase in insulin release in mouse BetaTC6 cells at 5 uM incubated for 2 hrs by ELISA; format: functional
Beta-TC6 [3] = assay: Increase in insulin release in mouse BetaTC6 cells assessed as relative insulin release activity at 10 uM incubated for 2 to 4 hrs by FRET based HTRF assay relative to sunitinib; format: functional
C2C12 [4] = assay: Cytotoxic activity against mouse C2C12 cells assessed as inhibition of cell proliferation of at 2 to 10 uM incubated for 72 hrs by MTT assay; format: cell-based; settings: c2c12, 72 h
[5] = target: T1, N-terminal kinase-like protein (Mus musculus); assay: Inhibition of Scyl1 in mouse BetaTC6 cells assessed as increase in insulin release at 2 to 10 uM incubated for 2 hrs in presence of high glucose media by ELISA; format: cell-based; settings: Beta-TC6
[6] = Effect on insulin release in mouse BetaTC6 cells assessed as ratio of insulin release incubated for 2 hrs in presence of low glucose media by ELISA relative to DMSO; format: cell-based; settings: beta-tc6, 2 h
[7] = Cytotoxic activity against mouse BetaTC6 cells assessed as inhibition of cell proliferation at 10 uM incubated for 72 hrs by MTT assay; format: cell-based; settings: beta-tc6, 72 h
C2C12 [8] = assay: Cytotoxic activity against mouse C2C12 cells assessed as inhibition of cell proliferation of at 2 uM incubated for 72 hrs by MTT assay; format: cell-based; settings: c2c12, 72 h
[9] = Cytotoxic activity against mouse BetaTC6 cells assessed as inhibition of cell proliferation at 2 to 10 uM incubated for 72 hrs by MTT assay; format: cell-based; settings: beta-tc6, 72 h
[10] = target: T1, N-terminal kinase-like protein (Mus musculus); assay: Inhibition of Scyl1 in mouse BetaTC6 cells assessed as reduction in increase in insulin release at 5 uM incubated for 2 hrs by ELISA; format: cell-based; settings: Beta-TC6
[11] = target: RAC-alpha serine/threonine-protein kinase (Mus musculus) (UniProt P31750); assay: Inhibition of Akt1 in mouse BetaTC6 cells assessed as increase in insulin release at 10 uM incubated for 2 hrs by ELISA; format: cell-based; design: scale not given: the % may be the effect or the level left; settings: Beta-TC6
Beta-TC6 [12] = assay: Effect on insulin release in mouse BetaTC6 cells incubated for 2 hrs by ELISA; format: functional, cell-based

RAC-alpha serine/threonine-protein kinase (Mus musculus), sequence (P31750 whole entry): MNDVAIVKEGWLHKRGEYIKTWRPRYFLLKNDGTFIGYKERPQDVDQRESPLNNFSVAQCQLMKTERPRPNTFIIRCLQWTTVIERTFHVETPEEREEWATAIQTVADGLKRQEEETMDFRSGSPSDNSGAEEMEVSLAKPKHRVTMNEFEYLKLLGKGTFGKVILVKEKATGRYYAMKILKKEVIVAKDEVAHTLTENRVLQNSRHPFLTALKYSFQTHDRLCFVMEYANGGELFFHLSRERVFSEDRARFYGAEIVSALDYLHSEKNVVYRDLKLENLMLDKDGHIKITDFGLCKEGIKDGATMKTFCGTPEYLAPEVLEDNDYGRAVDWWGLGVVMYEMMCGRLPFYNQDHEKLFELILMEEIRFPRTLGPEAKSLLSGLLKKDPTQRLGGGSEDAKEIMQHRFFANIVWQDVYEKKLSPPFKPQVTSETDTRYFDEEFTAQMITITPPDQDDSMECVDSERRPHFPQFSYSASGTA

Question: Which results are given for COc1ncc(-c2cc(NC(C)=O)c3ncc(-c4cccc(C(=O)N(C)C)c4)n3c2)c(OC)n1?
Answer: fold change (FC) [1]: 1.73; Activity (Beta-TC6 [2]): -16.75%

Question: For CN(C)CCNC(=O)c1cccc(-c2cnc3ccc(-c4cccc(NS(C)(=O)=O)c4)nn23)c1, which Activity (Beta-TC6 [3]) is on record?
Answer: 20%

Question: And the Activity (C2C12 [4])?
Answer: Toxic

Question: What about the inhibition [5] of the same compound?
Answer: Dose-dependent effect

Question: What about the Activity [6] of the same compound?
Answer: Non-toxic

Question: What about the Activity [7] of the same compound?
Answer: Toxic

Question: For COc1ccc(-c2ccc3ncc(-c4ccncc4)n3n2)cc1OC, which Activity (Beta-TC6 [3]) is on record?
Answer: 20%

Question: What about the Activity (C2C12 [4]) of the same compound?
Answer: Toxic

Question: What about the inhibition [5] of the same compound?
Answer: Dose-dependent effect

Question: What about the Activity [6] of the same compound?
Answer: Non-toxic

Question: And the Activity [7]?
Answer: Toxic

Question: And the Activity (C2C12 [8])?
Answer: Non-toxic

Question: For Cn1cc(-c2ccc3ncc(-c4cccs4)n3n2)cn1, which Activity (Beta-TC6 [3]) is on record?
Answer: 20%

Question: What about the Activity (C2C12 [4]) of the same compound?
Answer: Toxic

Question: And the Activity [6]?
Answer: Non-toxic

Question: With CCN(CC)CCNC(=O)c1c(C)[nH]c(/C=C2\C(=O)Nc3ccc(F)cc32)c1C [SUNITINIB] as the compound, how does the Activity [7] read?
Answer: Toxic

Question: Which Activity (Beta-TC6 [3]) does the source give for CC(=O)Nc1cccc(-c2ccc3ncc(-c4cccc(NC(C)=O)c4)n3n2)c1 here?
Answer: 20%

Question: What about the Activity (C2C12 [4]) of the same compound?
Answer: Toxic

Question: And the Activity [9]?
Answer: Non-toxic

Question: And the inhibition [5]?
Answer: Dose-dependent effect

Question: And the Activity [6]?
Answer: Non-toxic

Question: What about the Activity (C2C12 [8]) of the same compound?
Answer: Non-toxic

Question: What does the source list for COc1cc(-c2ccc3ncc(-c4cccnc4)n3n2)cc(OC)c1OC?
Answer: Activity (Beta-TC6 [3]): 20%; Activity (C2C12 [4]): Toxic; Activity [9]: Non-toxic; inhibition [5]: Dose-dependent effect; Activity [6]: Non-toxic; Activity (C2C12 [8]): Non-toxic; inhibition [10]: 100%

Question: Which Activity [11] does the source give for CCCCCCCCCCCCCCCCCCOC[C@H](COP(=O)(O)O[C@H]1[C@H](O)[C@@H](O)[C@H](O)C[C@H]1OC)OC here?
Answer: 0.75%

Question: Which Activity (Beta-TC6 [3]) does the source give for COc1cc(-c2ccc3ncc(-c4cccc(C(=O)NCCN(C)C)c4)n3n2)ccc1O here?
Answer: 10%

Question: What about the Activity (C2C12 [4]) of the same compound?
Answer: Toxic

Question: For NC(=O)c1ccc(-c2cnc3ccc(Cc4ccc(F)cc4)nn23)cc1, which Activity (Beta-TC6 [3]) is on record?
Answer: 20%

Question: What about the Activity (C2C12 [4]) of the same compound?
Answer: Toxic

Question: Which Activity (Beta-TC6 [3]) does the source give for COc1cc(-c2cnc3ccc(-c4cc(OC)c(OC)c(OC)c4)nn23)ccc1O here?
Answer: 20%

Question: And the Activity (C2C12 [4])?
Answer: Toxic

Question: What about the inhibition [5] of the same compound?
Answer: Dose-dependent effect

Question: What about the Activity [6] of the same compound?
Answer: Non-toxic

Question: For CCCCNC(=O)NS(=O)(=O)c1ccc(C)cc1, which Activity (Beta-TC6 [12]) is on record?
Answer: inactive

Question: For COc1ccc(Cl)cc1C(=O)NCCc1ccc(S(=O)(=O)NC(=O)NC2CCCCC2)cc1, which Activity (Beta-TC6 [12]) is on record?
Answer: inactive

Question: What does the source list for NC(=O)c1ccc(-c2cnc3ccc(Cc4ccccc4)nn23)cc1?
Answer: Activity (Beta-TC6 [3]): 20%; Activity (C2C12 [4]): Toxic

Question: With COc1cccc(-c2ccc3nnc(-c4cscn4)n3c2)c1 as the compound, how does the Activity (Beta-TC6 [3]) read?
Answer: 50%

Question: With COc1ccc(-c2nnc3ccc(-c4cccc(F)c4)cn23)cc1OC as the compound, how does the Activity (Beta-TC6 [3]) read?
Answer: >=100%

Question: With COc1cc(-c2cnc3cnc(-c4ccc(N)nc4)cn23)ccc1O as the compound, how does the Activity (Beta-TC6 [3]) read?
Answer: 20%

Question: With Clc1ccc(-c2cnc3cnc(-c4cccs4)cn23)cc1 as the compound, how does the Activity (Beta-TC6 [3]) read?
Answer: 20%

Question: With CN(C)CCCOc1ccc(-c2nnc3ccc(C#Cc4ccc(C(=O)N(C)C)cc4)cn23)cc1 as the compound, how does the Activity (Beta-TC6 [3]) read?
Answer: 20%

Question: For c1cnc2cc(-c3nnc4ccc(-c5ccoc5)cn34)ccc2n1, which Activity (Beta-TC6 [3]) is on record?
Answer: 50%

Question: With CNc1ccc2ncc(/C=C\CCCO)n2n1 as the compound, how does the Activity (Beta-TC6 [3]) read?
Answer: 10%

Question: Which Activity (Beta-TC6 [3]) does the source give for CC(=O)c1cccc(-c2cnc3cnc(-c4cccnc4)cn23)c1 here?
Answer: 20%

Question: Which Activity (Beta-TC6 [3]) does the source give for Cn1ccc2cc(-c3cn4c(-c5ccc6ncccc6c5)cnc4cn3)ccc21 here?
Answer: >=100%

Question: For CC(=O)c1cccc(-c2cn3c(NC(=O)CC4CC4)cnc3cn2)c1, which Activity (Beta-TC6 [3]) is on record?
Answer: 20%

Question: For COc1cc(OC)cc(-c2cnc3cnc(-c4ccccc4N(C)C)cn23)c1, which Activity (Beta-TC6 [3]) is on record?
Answer: 20%

Question: With CCCNc1ccc2ncc(-c3cccc(/C=C/C(=O)O)c3)n2n1 as the compound, how does the Activity (Beta-TC6 [3]) read?
Answer: 10%

Question: With N#Cc1ccc(-c2cnc3cnc(-c4ccc(Cl)cc4)cn23)cc1 as the compound, how does the Activity (Beta-TC6 [3]) read?
Answer: 50%

Question: With Fc1cccc(-c2cnc3cnc(-c4ccccc4)cn23)c1 as the compound, how does the Activity (Beta-TC6 [3]) read?
Answer: 20%

Question: With COc1ccc(-c2cn3c(-c4ccc(N(C)C)cc4)cnc3cn2)cn1 as the compound, how does the Activity (Beta-TC6 [3]) read?
Answer: 50%

Question: For Cc1ccccc1-c1cnc2cnc(-c3cccs3)cn12, which Activity (Beta-TC6 [3]) is on record?
Answer: 10%

Question: For CN(C)c1cccc(-c2cnc3cnc(-c4ccncc4)cn23)c1, which Activity (Beta-TC6 [3]) is on record?
Answer: 20%

Question: With CS(=O)(=O)c1cccc(-c2ccc3nnc(-c4cccc(OC(F)(F)F)c4)n3c2)c1 as the compound, how does the Activity (Beta-TC6 [3]) read?
Answer: 50%
